Laboratory results taken from ChEMBL document CHEMBL5226375, “Synthesis and Comprehensive in Vivo Activity Profiling of Olean-12-en-28-ol, 3β-Pentacosanoate in Experimental Autoimmune Encephalomyelitis: A Natural Remyelinating and Anti-Inflammatory Agent” (J Nat Prod, 2023).
Active and inactive are the calls of the source. No cut-off for these calls is given here.

Columns and labels:
Mus musculus [1] = test: Anti-inflammatory activity against MOG35-55-induced experimental autoimmune encephalomyelitis C57BL/6 mouse model assessed as fold change in CXCL9 gene expression in brain at 0.3 mg/kg/day, ig for 14 days starting from 12th day of immunization by RT-qPCR analysis relative to control; format: functional; conditions: time 14 day
Mus musculus [2] = test: Anti-inflammatory activity against MOG35-55-induced experimental autoimmune encephalomyelitis C57BL/6 mouse model assessed as fold change in PLP gene expression in brain at 0.3 mg/kg/day, ig for 14 days starting from 12th day of immunization by RT-qPCR analysis relative to control; format: functional; conditions: time 14 day
Mus musculus [3] = test: Anti-inflammatory activity against MOG35-55-induced experimental autoimmune encephalomyelitis C57BL/6 mouse model assessed as fold change in BCL2 gene expression in brain at 0.3 mg/kg/day, ig for 14 days starting from 12th day of immunization by RT-qPCR analysis relative to control; format: functional; conditions: time 14 day
Mus musculus [4] = test: Anti-inflammatory activity against MOG35-55-induced experimental autoimmune encephalomyelitis C57BL/6 mouse model assessed as fold change in CXCL9 gene expression in brain at 0.15 mg/kg/day, ig for 14 days starting from 12th day of immunization by RT-qPCR analysis relative to control; format: functional; conditions: time 14 day
Mus musculus [5] = test: Anti-inflammatory activity against MOG35-55-induced experimental autoimmune encephalomyelitis C57BL/6 mouse model assessed as fold change in GFAP gene expression in brain at 0.15 mg/kg/day, ig for 14 days starting from 12th day of immunization by RT-qPCR analysis relative to control; format: functional; conditions: time 14 day
Mus musculus [6] = test: Anti-inflammatory activity against MOG35-55-induced experimental autoimmune encephalomyelitis C57BL/6 mouse model assessed as reduction in serum monokines level by measuring reduction in IL-1B level at 0.3 mg/kg/day, ig for 14 days starting from 12th day of immunization by ELISA; format: functional, organism-based; conditions: time 14.0 day
Mus musculus [7] = test: Anti-inflammatory activity against MOG35-55-induced experimental autoimmune encephalomyelitis C57BL/6 mouse model assessed as methylation of CpG sites of CXCL14 gene promoter in brain at […], ig for 14 days starting from 12th day of immunization by PCR analysis (reference value: 46.5 +/-6%); format: functional; conditions: time 14 day
Mus musculus [8] = test: Anti-inflammatory activity against MOG35-55-induced experimental autoimmune encephalomyelitis C57BL/6 mouse model assessed as methylation of CpG sites of IL13 gene promoter in brain at […], ig for 14 days starting from 12th day of immunization by PCR analysis (reference value: 57.3 +/-8%); format: functional; conditions: time 14 day
[9] = Stability of the compound in THF/phosphate buffer at pH 6.5 incubated for 2 hrs under stirring conditions by 1H-NMR analysis; format: physicochemical; conditions: pH 6.5, 2 h
[10] = Stability of the compound in THF/phosphate buffer at pH 7.4 incubated for 2 hrs under stirring conditions by 1H-NMR analysis; format: physicochemical; conditions: pH 7.4, 2 h
Mus musculus [11] = test: Anti-inflammatory activity against MOG35-55-induced experimental autoimmune encephalomyelitis C57BL/6 mouse model assessed as reduction in EAE symptoms by measuring reduction in clinical score at 300 to 600 mg/kg/day, ig starting from 12th day of immunization and measured on day 14 post-immunization; format: functional, organism-based; conditions: dose 300-600 mg/kg/day, time 2.0 day
Mus musculus [12] = test: Anti-inflammatory activity against MOG35-55-induced experimental autoimmune encephalomyelitis C57BL/6 mouse model assessed as fold change in C1S gene expression in brain at 600 mg/kg/day, ig for 14 days starting from 12th day of immunization by RT-qPCR analysis relative to control; format: functional; conditions: time 14 day
Mus musculus [13] = test: Anti-inflammatory activity against MOG35-55-induced experimental autoimmune encephalomyelitis C57BL/6 mouse model assessed as fold change in H2EB1 (HLA-DRB1) gene expression in brain at 600 mg/kg/day, ig for 14 days starting from 12th day of immunization by RT-qPCR analysis relative to control; format: functional; conditions: time 14 day
Mus musculus [14] = test: Anti-inflammatory activity against MOG35-55-induced experimental autoimmune encephalomyelitis C57BL/6 mouse model assessed as fold change in HIF1A gene expression in brain at 300 mg/kg/day, ig for 14 days starting from 12th day of immunization by RT-qPCR analysis relative to control; format: functional; conditions: time 14 day
Mus musculus [15] = test: Anti-inflammatory activity against MOG35-55-induced experimental autoimmune encephalomyelitis C57BL/6 mouse model assessed as fold change in NFKB gene expression in brain at 300 mg/kg/day, ig for 14 days starting from 12th day of immunization by RT-qPCR analysis relative to control; format: functional; conditions: time 14 day
Mus musculus [16] = test: Anti-inflammatory activity against MOG35-55-induced experimental autoimmune encephalomyelitis C57BL/6 mouse model assessed as fold change in CD4 gene expression in brain at 300 mg/kg/day, ig for 14 days starting from 12th day of immunization by RT-qPCR analysis relative to control; format: functional; conditions: time 14 day
Mus musculus [17] = test: Anti-inflammatory activity against MOG35-55-induced experimental autoimmune encephalomyelitis C57BL/6 mouse model assessed as fold change in BCL2 gene expression in brain at 300 mg/kg/day, ig for 14 days starting from 12th day of immunization by RT-qPCR analysis relative to control; format: functional; conditions: time 14 day
Mus musculus [18] = test: Anti-inflammatory activity against MOG35-55-induced experimental autoimmune encephalomyelitis C57BL/6 mouse model assessed as reduction in CCL5 protein expression in brain at 300 to 600 mg/kg/day, ig for 14 days starting from 12th day of immunization by western blot analysis; format: functional, organism-based; conditions: dose 300-600 mg/kg/day, time 14.0 day
Mus musculus [19] = test: Anti-inflammatory activity against MOG35-55-induced experimental autoimmune encephalomyelitis C57BL/6 mouse model assessed as upregulation of MBP protein expression in brain at 300 to 600 mg/kg/day, ig for 14 days starting from 12th day of immunization by western blot analysis relative to control; format: functional; conditions: dose 300-600 mg/kg/day, time 14 day
Mus musculus [20] = test: Anti-inflammatory activity against MOG35-55-induced experimental autoimmune encephalomyelitis C57BL/6 mouse model assessed as reduction in serum […] cytokine level by measuring reduction in IL-17 level at 600 mg/kg/day, ig for 14 days starting from 12th day of immunization by ELISA; format: functional, organism-based; conditions: time 14.0 day
Mus musculus [21] = test: Anti-inflammatory activity against MOG35-55-induced experimental autoimmune encephalomyelitis C57BL/6 mouse model assessed as reduction in serum chemokines level by measuring reduction in IL-3 level at 600 mg/kg/day, ig for 14 days starting from 12th day of immunization by ELISA; format: functional, organism-based; conditions: time 14.0 day
Mus musculus [22] = test: Anti-inflammatory activity against MOG35-55-induced experimental autoimmune encephalomyelitis C57BL/6 mouse model assessed as increase in serum IL-4 level at 600 mg/kg/day, ig for 14 days starting from 12th day of immunization by ELISA; format: functional, organism-based; conditions: time 14.0 day
Mus musculus [23] = test: Anti-inflammatory activity against MOG35-55-induced experimental autoimmune encephalomyelitis C57BL/6 mouse model assessed as increase in serum IL-10 level at 600 mg/kg/day, ig for 14 days starting from 12th day of immunization by ELISA; format: functional, organism-based; conditions: time 14.0 day

CCCCCCCCc1ccc(CCC(N)(CO)CO)cc1 [FINGOLIMOD]
fold change (FC) (Mus musculus [1]): -1.12 | fold change (FC) (Mus musculus [2]): -2.32 | fold change (FC) (Mus musculus [3]): 2.12 | fold change (FC) (Mus musculus [4]): 2.86 | fold change (FC) (Mus musculus [5]): 2.62 | Activity (Mus musculus [6]): Active | Activity (Mus musculus [7]): 73.6% | Activity (Mus musculus [8]): 33.1%

CCCCCCCCCCCCCCCCCCCCCCCCC(=O)O[C@H]1CC[C@]2(C)[C@H]3CC=C4[C@@H]5CC(C)(C)CC[C@]5(CO)CC[C@@]4(C)[C@]3(C)CC[C@H]2C1(C)C
Stability [9]: Stable | Stability [10]: Stable | Activity (Mus musculus [11]): Active | fold change (FC) (Mus musculus [12]): 1.98 | fold change (FC) (Mus musculus [13]): 11.4 | fold change (FC) (Mus musculus [14]): 1.92 | fold change (FC) (Mus musculus [15]): 1.62 | fold change (FC) (Mus musculus [16]): 2.55 | fold change (FC) (Mus musculus [17]): 1.76 | Activity (Mus musculus [18]): Active | fold change (FC) (Mus musculus [19]): 2 | Activity (Mus musculus [20]): Active | Activity (Mus musculus [21]): Active | Activity (Mus musculus [22]): Active | Activity (Mus musculus [23]): Active
